The source of these data is ChEMBL document CHEMBL3853351, “Discovery of O6-benzyl glaziovianin A, a potent cytotoxic substance and a potent inhibitor of α,β-tubulin polymerization” (Bioorg Med Chem, 2016).

Where “and” joins values, the source holds several entries; their conditions need not be identical. Equal values may be shown once. Calls of active or inactive are those of the source. The rule behind the calls is not given here.

A short description of test [1]: Binding affinity to porcine alpha/beta tubulin assessed as decrease in tryptophan fluorescence measured after 30 mins by tryptophan fluorescence assay. On the set-up: species or system Sus scrofa.
Test [2] in a line: Cytotoxicity against human HeLa cells assessed as reduction in cell growth measured after 48 hrs by WST-8 assay. In kind it is functional, cell-based. For orientation: Tetrazolium dyes change colour on reduction, which living cells bring about.
The next test is filed under the species Homo sapiens. The experiment in a line: Inhibition of alpha-[32P]-GTP binding to human gamma-tubulin at 60 uM preincubated for 15 mins followed by alpha-[32P]-GTP addition measured after 30 mins relative to control.
For test [3], the species on record is Sus scrofa. The experiment in a line: Inhibition of [3H]vinblastine binding to microtubule associated proteins free porcine brain alpha/beta-tubulin assessed as remaining radiolabeled binding at 100 uM measured after 5 mins by centrifugal gel filtration method relative to control. In general terms: In gel filtration, larger molecules generally elute earlier.

Test [4] is filed under the species Sus scrofa. The experiment in a line: Inhibition of [3H]colchicine binding to microtubule associated proteins free porcine brain alpha/beta-tubulin assessed as remaining radiolabeled binding at 100 uM measured after 5 mins by centrifugal gel filtration method relative to control.
Test [5] concerns HeLa. The experiment in a line: Inhibition of bipolar spindle formation in human HeLa cells at 1 uM measured after 6 hrs by DAPI staining-based fluorescence microscopic analysis. In kind it is functional, cell-based.
Test [6] can be described thus: Inhibition of alpha-[32P]-GTP binding to human gamma-tubulin preincubated for 15 mins followed by alpha-[32P]-GTP addition measured after 30 mins.
The species entered for test [7] is Sus scrofa. The experiment in a line: Inhibition of microtubule associated proteins free porcine brain alpha/beta-tubulin polymerization at 3 uM measured after 10 mins by thermostatic spectrophotometric method.
For test [8], the system named is HeLa. The experiment in a line: Mitotic arrest in human HeLa cells at 100 nM measured after 18 hrs by propidium iodide-staining based flow cytometry. In kind it is functional, cell-based. (In general: A flow cytometer gives signals particle by particle.)
In test [9] the test system is HeLa. The experiment in a line: Inhibition of bipolar spindle formation in human HeLa cells at 100 and 300 nM measured after 6 hrs by DAPI staining-based fluorescence microscopic analysis. In kind it is functional, cell-based.
Test [10] in a line: Inhibition of microtubule associated proteins free porcine brain alpha/beta-tubulin polymerization measured after 10 mins by thermostatic spectrophotometric method. On the set-up: species or system Sus scrofa.

By Kd is commonly meant the free concentration of one partner at which half of the binding sites on the other are occupied at equilibrium, for simple one-to-one binding. As a reminder, the IC50 is the point on the concentration scale where inhibition reaches its midpoint. Regarding `COc1cc2c(c(OC)c1OC)-c1ccc(OC)c(=O)cc1[C@@H](NC(C)=O)CC2` [COLCHICINE], the Kd in [1] is 26600 nM. In test [2], the IC50 was found to be 20 nM.

A word on the inhibition: it is the share of the control response that was lost under treatment. In the test listed under Homo sapiens, `COc1cc2c(=O)c(-c3cc(OC)c4c(c3OC)OCO4)coc2cc1OCc1ccccc1` came in with an inhibition of 93.3%. For the same compound, in [2], the IC50 was 12800 nM.

Turning to `CC[C@]1(O)C[C@@H]2CN(CCc3c([nH]c4ccccc34)[C@@](C(=O)OC)(c3cc4c(cc3OC)N(C)[C@H]3[C@@](O)(C(=O)OC)[C@H](OC(C)=O)[C@]5(CC)C=CCN6CC[C@]43[C@@H]65)C2)C1`, the results for the Activity in the test filed under Sus scrofa [3] and in the test filed under Sus scrofa [4] were 5.3% and 127%, respectively.

For `COc1cc2occ(-c3cc(OC)c4c(c3OC)OCO4)c(=O)c2cc1OC` [GLAZIOVIANIN A], the Activity in the test listed under Sus scrofa [3] turned out to be 112%; in the test filed under Sus scrofa [4], 67.8%. Moreover, in the test with HeLa [5], the inhibition result was “Active”. Also, the equilibrium dissociation constant (Kd) in test [1] worked out at 80000 nM. For the same compound, the IC50 in [2] is 610 nM.

With `C#CCOc1cc2occ(-c3cc(OC)c4c(c3OC)OCO4)c(=O)c2cc1OC`, the IC50 in [6] was 450 nM and 170 nM.

Regarding `COc1cc2occ(-c3cc(OC)c4c(c3OC)OCO4)c(=O)c2cc1OCc1ccccc1`, the Activity in the test listed under Sus scrofa [3] was determined as 118%; in the test listed under Sus scrofa [4], 20.3%. For the same compound, the inhibition entry in the test filed under Sus scrofa [7] and in the test on HeLa [9] was “Active” each time. In the test with HeLa [8], the result was Active. The inhibition in the test listed under Homo sapiens came to 89.6%. Further, the Kd in test [1] amounted to 1000 nM. Besides, the figures for the 50% inhibitory concentration (IC50) in test [10] and in test [2] were 2100 nM and 70 nM, respectively.
